# What was measured:
# Assay in all cases: two-electrode voltage clamp, Xenopus oocytes
# Type in all cases: cell-based
# Asu-ACR-16 nAChR [1] = biological target: T1, Asu-ACR-16 nAChR (Ascaris suum, UniProt A0A0K0QSL7)
# T1 construct: homopentameric nAChR; full-length subunit cRNA injected in Xenopus laevis oocytes; no auxiliary subunit mentioned
# T1 sequence (A0A0K0QSL7 1-504): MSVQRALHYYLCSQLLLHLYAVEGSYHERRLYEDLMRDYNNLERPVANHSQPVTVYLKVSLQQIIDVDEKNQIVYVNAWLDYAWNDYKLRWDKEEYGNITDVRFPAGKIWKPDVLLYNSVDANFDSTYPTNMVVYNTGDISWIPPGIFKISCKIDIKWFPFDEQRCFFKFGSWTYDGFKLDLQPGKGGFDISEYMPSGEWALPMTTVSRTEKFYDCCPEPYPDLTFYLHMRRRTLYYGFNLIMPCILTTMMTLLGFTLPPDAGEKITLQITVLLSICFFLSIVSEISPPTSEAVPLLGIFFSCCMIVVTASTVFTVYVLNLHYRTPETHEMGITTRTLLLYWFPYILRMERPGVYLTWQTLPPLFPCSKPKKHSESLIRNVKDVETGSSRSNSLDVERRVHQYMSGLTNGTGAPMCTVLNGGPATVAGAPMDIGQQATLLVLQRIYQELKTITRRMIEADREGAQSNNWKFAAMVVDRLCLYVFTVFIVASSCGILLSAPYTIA
# Asu-ACR-16 nAChR [2] = biological target: T1, Asu-ACR-16 nAChR; conditions: non-competitive antagonist of ACh-evoked currents, -60 mV
# Asu-ACR-16 nAChR [3] = biological target: T1, Asu-ACR-16 nAChR; conditions: non-competitive inhibition of ACh-evoked currents, -60 mV
compound,measurement,setting,value
CC(=O)OCC[N+](C)(C)C [acetylcholine],EC50,Asu-ACR-16 nAChR [1],7.89 ± 1.02 µM
Cc1ccc(C(C)C)cc1O [carvacrol],Emax of ACh at 100 μM carvacrol (% of response to 100 μM ACh),Asu-ACR-16 nAChR [2],73.09 ± 1.87%
CC(C)=CCC/C(C)=C/CO [geraniol],Emax of ACh at 100 μM geraniol (% of response to 100 μM ACh; control 97.63 ± 0.92%),Asu-ACR-16 nAChR [3],39.83 ± 1.49%

# — article PMC12389580, “Neuromuscular System of Nematodes Is a Target of Synergistic Pharmacological Effects of Carvacrol and Geraniol” (Pharmaceuticals, 2025)
